# Measured values reported in PubChem BioAssay AID1963862 (Molecular Pharmacology Branch, DTP, NCI, 2024).
# Test system: KRAS patient-derived spheroids with HUVEC/MSC, viability
# Test: Anticancer human tumor 941728-121-R-J1-PDC patient-derived lung adenocarcinoma cell line growth inhibition [KRAS2]
# Conditions: for IC50: curve of first compound; for viability, T/C: stronger effect = lower value
# Outline: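 Combination screen of spheroid viability in tumor-cell co-cultures with endothelial (HUVEC) and mesenchymal stem cell stroma. Each agent was tested in half-log dilutions, topping at clinical Cmax or at 10 microM without a known Cmax.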
# [1] = second compound 0.0316 µM, first compound 0.0316 µM
# [2] = second compound 0.0316 µM, first compound 0.1 µM
# [3] = second compound 0.0316 µM, first compound 0.316 µM
# [4] = second compound 0.0316 µM, first compound 1 µM
# [5] = second compound 0.0316 µM, first compound 3.16 µM
# [6] = second compound 0.0316 µM, first compound 10 µM
# [7] = second compound 0.1 µM, first compound 0.0316 µM
# [8] = second compound 0.1 µM, first compound 0.1 µM
# [9] = second compound 0.1 µM, first compound 0.316 µM
# [10] = second compound 0.1 µM, first compound 1 µM
# [11] = second compound 0.1 µM, first compound 3.16 µM
# [12] = second compound 0.1 µM, first compound 10 µM
# [13] = second compound 0.316 µM, first compound 0.0316 µM
# [14] = second compound 0.316 µM, first compound 0.1 µM
# [15] = second compound 0.316 µM, first compound 0.316 µM
# [16] = second compound 0.316 µM, first compound 1 µM
# [17] = second compound 0.316 µM, first compound 3.16 µM
# [18] = second compound 0.316 µM, first compound 10 µM
# [19] = second compound 1 µM, first compound 0.0316 µM
# [20] = second compound 1 µM, first compound 0.1 µM
# [21] = second compound 1 µM, first compound 0.316 µM
# [22] = second compound 1 µM, first compound 1 µM
# [23] = second compound 1 µM, first compound 3.16 µM
# [24] = second compound 1 µM, first compound 10 µM
# [25] = second compound 3.16 µM, first compound 0.0316 µM
# [26] = second compound 3.16 µM, first compound 0.1 µM
# [27] = second compound 3.16 µM, first compound 0.316 µM
# [28] = second compound 3.16 µM, first compound 1 µM
# [29] = second compound 3.16 µM, first compound 3.16 µM
# [30] = second compound 3.16 µM, first compound 10 µM
# [31] = second compound 0.0316 µM, first compound 0.000316 µM
# [32] = second compound 0.0316 µM, first compound 0.001 µM
# [33] = second compound 0.0316 µM, first compound 0.00316 µM
# [34] = second compound 0.0316 µM, first compound 0.01 µM
# [35] = second compound 0.1 µM, first compound 0.000316 µM
# [36] = second compound 0.1 µM, first compound 0.001 µM
# [37] = second compound 0.1 µM, first compound 0.00316 µM
# [38] = second compound 0.1 µM, first compound 0.01 µM
# [39] = second compound 0.316 µM, first compound 0.000316 µM
# [40] = second compound 0.316 µM, first compound 0.001 µM
# [41] = second compound 0.316 µM, first compound 0.00316 µM
# [42] = second compound 0.316 µM, first compound 0.01 µM
# [43] = second compound 1 µM, first compound 0.000316 µM
# [44] = second compound 1 µM, first compound 0.001 µM
# [45] = second compound 1 µM, first compound 0.00316 µM
# [46] = second compound 1 µM, first compound 0.01 µM
# [47] = second compound 3.16 µM, first compound 0.000316 µM
# [48] = second compound 3.16 µM, first compound 0.001 µM
# [49] = second compound 3.16 µM, first compound 0.00316 µM
# [50] = second compound 3.16 µM, first compound 0.01 µM
# 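Also: spheroids exposed to agents for seven days before readout.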
Compound,IC50 (second compound 0.0316 µM) [nM],IC50 (second compound 0.1 µM) [nM],IC50 (second compound 0.316 µM) [nM],IC50 (second compound 1 µM) [nM],IC50 (second compound 3.16 µM) [nM],"viability, T/C [1] [%]","viability, T/C [2] [%]","viability, T/C [3] [%]","viability, T/C [4] [%]","viability, T/C [7] [%]","viability, T/C [8] [%]","viability, T/C [9] [%]","viability, T/C [10] [%]","viability, T/C [13] [%]","viability, T/C [14] [%]","viability, T/C [15] [%]","viability, T/C [19] [%]","viability, T/C [20] [%]","viability, T/C [25] [%]","viability, T/C [26] [%]",also measured
CC(C)NCC(C(=O)N1CCN(c2ncnc3c2C(C)CC3O)CC1)c1ccc(Cl)cc1 (stereo not given) + C=CC(=O)N1CCN(c2nc(OCC3CCCN3C)nc3c2CCN(c2cccc4cccc(C)c24)C3)CC1CC#N,< 31.6,< 31.6,< 31.6,< 31.6,< 31.6,29.1,29.5,23.4,23.5,27.3,30,22.8,19.5,26.8,26.6,26.5,27.4,24.1,0.13,0.12,"viability, T/C [5]: 18%; viability, T/C [6]: 7.87%; viability, T/C [11]: 14.5%; viability, T/C [12]: 7.59%; viability, T/C [16]: 18.9%; viability, T/C [17]: 15.7%; viability, T/C [18]: 8.89%; viability, T/C [21]: 18.9%; viability, T/C [22]: 15%; viability, T/C [23]: 12.5%; viability, T/C [24]: 4.68%; viability, T/C [27]: 0.12%; viability, T/C [28]: 0.15%; viability, T/C [29]: 0.18%; viability, T/C [30]: 0.25%"
CC(C)n1nc(-c2ccc3oc(N)nc3c2)c2c(N)ncnc21 + C=CC(=O)N1CCN(c2nc(OCC3CCCN3C)nc3c2CCN(c2cccc4cccc(C)c24)C3)CC1CC#N,< 0.316,< 0.316,< 0.316,< 0.316,< 0.316,11.5,11,–,–,11.1,12.5,–,–,13,9.77,–,9.99,10.3,0.12,0.23,"viability, T/C [31]: 35.4%; viability, T/C [32]: 32.9%; viability, T/C [33]: 24.6%; viability, T/C [34]: 17.3%; viability, T/C [35]: 35.3%; viability, T/C [36]: 28.8%; viability, T/C [37]: 28%; viability, T/C [38]: 15.9%; viability, T/C [39]: 38.2%; viability, T/C [40]: 33.9%; viability, T/C [41]: 26.6%; viability, T/C [42]: 16.8%; viability, T/C [43]: 33.1%; viability, T/C [44]: 29%; viability, T/C [45]: 20%; viability, T/C [46]: 11.9%; viability, T/C [47]: 2.26%; viability, T/C [48]: 0.92%; viability, T/C [49]: 0.32%; viability, T/C [50]: 0.8%"
CC1(C)CCC(CN2CCN(c3ccc(C(=O)NS(=O)(=O)c4ccc(NCC5CCOCC5)c([N+](=O)[O-])c4)c(Oc4cnc5[nH]ccc5c4)c3)CC2)=C(c2ccc(Cl)cc2)C1 + C=CC(=O)N1CCN(c2nc(OCC3CCCN3C)nc3c2CCN(c2cccc4cccc(C)c24)C3)CC1CC#N,< 31.6,< 31.6,< 31.6,< 31.6,< 31.6,26.6,26.4,26.4,24,26.5,23.7,24.9,25.1,25.2,25.5,25,22.6,21.4,0.12,0.13,"viability, T/C [5]: 6%; viability, T/C [6]: 4.38%; viability, T/C [11]: 5.88%; viability, T/C [12]: 2.8%; viability, T/C [16]: 25.8%; viability, T/C [17]: 5.25%; viability, T/C [18]: 3.74%; viability, T/C [21]: 21.4%; viability, T/C [22]: 21.4%; viability, T/C [23]: 5.13%; viability, T/C [24]: 1.61%; viability, T/C [27]: 0.1%; viability, T/C [28]: 0.09%; viability, T/C [29]: 0.08%; viability, T/C [30]: 0.12%"
CCN1CCN(Cc2ccc(Nc3ncc(F)c(-c4cc(F)c5nc(C)n(C(C)C)c5c4)n3)nc2)CC1 + C=CC(=O)N1CCN(c2nc(OCC3CCCN3C)nc3c2CCN(c2cccc4cccc(C)c24)C3)CC1CC#N,< 3.16,< 3.16,< 3.16,< 3.16,< 3.16,23.5,25.4,26.3,26.9,18.9,20.8,18.1,23.5,19.1,20.2,21.1,20.1,18.4,0.49,0.73,"viability, T/C [33]: 24.3%; viability, T/C [34]: 25.6%; viability, T/C [37]: 20.9%; viability, T/C [38]: 21.3%; viability, T/C [41]: 21%; viability, T/C [42]: 21.2%; viability, T/C [16]: 21.6%; viability, T/C [45]: 21.3%; viability, T/C [46]: 21.4%; viability, T/C [21]: 19.4%; viability, T/C [22]: 20%; viability, T/C [49]: 1.17%; viability, T/C [50]: 1.06%; viability, T/C [27]: 0.52%; viability, T/C [28]: 0.18%"
COc1cc2nccc(Oc3ccc(NC(=O)C4(C(=O)Nc5ccc(F)cc5)CC4)cc3)c2cc1OC + C=CC(=O)N1CCN(c2nc(OCC3CCCN3C)nc3c2CCN(c2cccc4cccc(C)c24)C3)CC1CC#N,< 31.6,< 31.6,< 31.6,< 31.6,< 31.6,17.9,18,15.1,13.3,14.3,15.8,15.3,13.3,15.4,16.3,13.1,14.2,14.5,0.1,0.12,"viability, T/C [5]: 7.03%; viability, T/C [6]: 7.62%; viability, T/C [11]: 5.66%; viability, T/C [12]: 6.73%; viability, T/C [16]: 13.7%; viability, T/C [17]: 4.32%; viability, T/C [18]: 5.26%; viability, T/C [21]: 10.5%; viability, T/C [22]: 7.23%; viability, T/C [23]: 1.37%; viability, T/C [24]: 0.49%; viability, T/C [27]: 0.12%; viability, T/C [28]: 0.09%; viability, T/C [29]: 0.09%; viability, T/C [30]: 0.19%"
Cn1ncnc1[C@H]1c2n[nH]c(=O)c3cc(F)cc(c23)N[C@@H]1c1ccc(F)cc1 + C=CC(=O)N1CCN(c2nc(OCC3CCCN3C)nc3c2CCN(c2cccc4cccc(C)c24)C3)CC1CC#N,< 0.316,< 0.316,< 0.316,< 0.316,< 0.316,17.4,17.5,–,–,17.3,15.8,–,–,16,17.1,–,15.5,14.2,0.16,0.23,"viability, T/C [31]: 24.6%; viability, T/C [32]: 23.2%; viability, T/C [33]: 19.4%; viability, T/C [34]: 19.7%; viability, T/C [35]: 18.3%; viability, T/C [36]: 18.2%; viability, T/C [37]: 19.9%; viability, T/C [38]: 17.6%; viability, T/C [39]: 18.2%; viability, T/C [40]: 18.9%; viability, T/C [41]: 17.9%; viability, T/C [42]: 16.2%; viability, T/C [43]: 17.6%; viability, T/C [44]: 17.5%; viability, T/C [45]: 13.5%; viability, T/C [46]: 18.3%; viability, T/C [47]: 0.11%; viability, T/C [48]: 0.2%; viability, T/C [49]: 0.09%; viability, T/C [50]: 0.11%"
